These results are taken from publication PMC7734281, “Functionalized Oxoindolin Hydrazine Carbothioamide Derivatives as Highly Potent Inhibitors of Nucleoside Triphosphate Diphosphohydrolases” (Frontiers in Pharmacology, 2020).

One series concerns the target T1, h-NTPDase3 (Homo sapiens, UniProt O75355).
T1 construct: made in house; host or cells: COS-7 cells, transient transfection; crude protein extract after sonication
T1 sequence (O75355 1-529): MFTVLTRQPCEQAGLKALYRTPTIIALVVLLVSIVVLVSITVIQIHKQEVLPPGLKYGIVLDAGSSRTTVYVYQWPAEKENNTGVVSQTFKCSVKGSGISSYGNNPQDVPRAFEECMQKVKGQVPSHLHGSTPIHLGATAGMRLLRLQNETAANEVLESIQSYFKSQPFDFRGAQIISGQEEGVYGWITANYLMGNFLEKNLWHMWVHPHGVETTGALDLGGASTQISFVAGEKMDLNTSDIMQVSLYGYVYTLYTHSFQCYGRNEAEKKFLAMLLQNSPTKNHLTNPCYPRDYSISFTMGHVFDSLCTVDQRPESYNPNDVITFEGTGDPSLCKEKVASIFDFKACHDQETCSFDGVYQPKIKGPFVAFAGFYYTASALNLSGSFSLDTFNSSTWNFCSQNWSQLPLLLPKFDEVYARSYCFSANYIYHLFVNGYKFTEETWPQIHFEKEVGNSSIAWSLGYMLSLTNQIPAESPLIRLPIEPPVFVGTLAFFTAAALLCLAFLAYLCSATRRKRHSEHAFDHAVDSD
Briefly: h-NTPDase3 inhibition, malachite green assay. The following applies: for inhibition at 100 µM / Ki / IC50: human NTPDase3; for inhibition at 100 µM: compound 100 µM; for Mode of inhibition of h-NTPDase3: Lineweaver-Burk plot; for IC50: ATP 100 µM substrate, mean ± SEM of three independent experiments. It counts as biochemical. On the procedure:
(§1) COS-7 cells were transfected with plasmids expressing human or mouse NTPDases1, -2, -3, and -8 as previously described ([Levesque et al., 2007]; [Lecka et al., 2014]) Briefly, the confluent cells were transferred to Dulbecco’s Modified Eagle’s Medium containing no fetal bovine serum. Then, these cells were incubated with plasmid DNA (6 µg) and Lipofectamine reagent (24 µl) at 37°C. After 5 h, transfection was terminated with the addition of an equal volume of DMEM/F-12 (supplemented with 20% FBS) and cells were collected by harvesting after 40–72 h.
(§2) To prepare protein extracts, transfected COS-7 cells were washed three times with tris-saline buffer while temperature was maintained at 4°C. Then cells were scraped and resuspended in harvesting buffer containing 95 mM NaCl, 45 mM tris and 0.1 mM phenylmethylsulfonyl fluoride (pH 7.5). Cells were again washed twice by centrifugation for 5 min at 300 × g at 4°C and then resuspended in harvesting buffer (supplemented with 10 μg ml aprotinin). Following sonication, cellular debris was isolated by 10 min centrifugation at 300 g at 4°C. Subsequently, supernatant was removed very carefully and protein concentration was determined by using Bradford microplate assay while using the bovine serum albumin as a standard ([Bradford, 1976]).
(§3) The inhibitory effects of synthesized compounds on h-NTPDase1, -2, -3, and -8 were determined as described previously, although with slight modifications ([Martín-Satué et al., 2009]). Assay was conducted in a reaction medium containing 50 mM tris-HCl and 5 mM CaCl2 (pH 7.4). All the test compounds were dissolved in dimethyl sulfoxide (DMSO, 10%) and initially screened at a concentration of 100 µM. A reaction mixture containing 55 µl of assay buffer, 10 µl of test compound solution and 10 µl of h-NTPDase1 (58 ng/well) or h-NTPDase2 (79 ng/well) or h-NTPDase3 (163 ng/well) or h-NTPDase8 (66 ng/well) was incubated at 37°C for 10 min. Following the incubation, a 10 µl solution of adenosine triphosphate (ATP, 100 µm) was added as substrate and reaction mixture was again incubated for 15 min at 37°C. The reaction was stopped by adding malachite green reagent (15 µl) and placed at room temperature for 4 to 6 min. Finally, absorbance was measured at 630 nm by using Omega FLUOstar microplate reader (BMG Labtech, Ortenberg, Germany) and % inhibitions were calculated. For compounds showing more than 50% inhibition of any isozyme, dose response curves were generated and their IC50 values were determined. Three separate enzyme inhibition assays were carried out in triplicate and dose-response curve were generated by using PRISM 5.0 (GraphPad, San Diego, United States).

Another series addresses T2, m-NTPDase2 (Mus musculus, UniProt O55026).
T2 construct: made in house; host or cells: COS-7 cells, transient transfection; crude protein extract after sonication
T2 sequence (O55026 1-495): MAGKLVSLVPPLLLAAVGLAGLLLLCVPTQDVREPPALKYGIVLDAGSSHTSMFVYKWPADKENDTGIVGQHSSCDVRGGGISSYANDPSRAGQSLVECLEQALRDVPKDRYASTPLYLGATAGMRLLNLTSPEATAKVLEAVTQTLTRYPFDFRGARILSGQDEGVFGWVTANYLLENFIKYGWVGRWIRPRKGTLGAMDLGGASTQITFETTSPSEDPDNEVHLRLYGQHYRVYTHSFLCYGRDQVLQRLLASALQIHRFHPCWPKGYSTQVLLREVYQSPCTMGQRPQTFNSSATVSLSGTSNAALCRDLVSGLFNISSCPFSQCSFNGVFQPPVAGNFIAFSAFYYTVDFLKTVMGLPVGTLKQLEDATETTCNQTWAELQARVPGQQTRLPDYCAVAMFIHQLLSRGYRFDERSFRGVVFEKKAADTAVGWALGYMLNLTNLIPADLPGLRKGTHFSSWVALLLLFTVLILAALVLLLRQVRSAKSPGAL
Briefly: m-NTPDase2 inhibition, malachite green assay. It counts as biochemical. The following applies: for inhibition at 100 µM: compound 100 µM; for IC50: mean ± SEM of three independent experiments. The method, then:
as §1, §2, §3
Same procedure was adopted to determine the inhibitory effects of compounds on mouse NTPDases (m-NTPDases). However, the amount of protein used was as follows: m-NTPDase1 (82 ng/well), m-NTPDase2 (57 ng/well), m-NTPDase3 (110 ng/well) and m-NTPDase8 (79 ng/well)

In general, inhibition refers to the drop in the measured response relative to a control, in per cent. The low end stands for a response near the control, the high end for a response far below the control. For the compound `O=C1Nc2ccccc2/C1=N/NC(=S)Nc1ccccc1` [8a, (Z)-2-(2-oxoindolin-3-ylidene)-N-phenylhydrazine-1-carbothioamide], the inhibition at 100 µM came to 20% at h-NTPDase3 and 42% at m-NTPDase2.
Broadly, the melting point is the temperature of the solid-liquid transition. As for `O=C1Nc2ccccc2/C1=N/NC(=S)Nc1ccc([N+](=O)[O-])cc1` [8b, (Z)-N-(4-nitrophenyl)-2-(2-oxoindolin-3-ylidene)hydrazine-1-carbothioamide], the melting point was in the range of 271 to 272 °C. The same compound returned an inhibition at 100 µM at m-NTPDase2 of 31%.
In general, Ki refers to the equilibrium dissociation constant of an inhibitor or competing ligand from its target. High values mean lower affinity, low ones higher affinity. Usually IC50 stands for the concentration that gives 50% inhibition. Lower therefore signals greater potency in that assay. In turn, `O=C1Nc2ccccc2/C1=N/NC(=S)Nc1ccc(Cl)cc1` [8c, (Z)-N-(4-chlorophenyl)-2-(2-oxoindolin-3-ylidene)hydrazine-1-carbothioamide] returned a melting point of 240 to 244 °C. At h-NTPDase3 (IC50 ratio versus suramin), the “Times more active than standard inhibitor suramin (comparison of IC50s), h-NTPDase3” value amounted to 22 times. For the same compound, on h-NTPDase3, the “Mode of inhibition of h-NTPDase3” value is listed as “competitive”, the Ki worked out at 0.08 µM and the IC50 came to 0.19 ± 0.02 µM. The inhibition at 100 µM at m-NTPDase2 was 36%.
Consider `O=C1Nc2ccccc2/C1=N/NC(=S)Nc1ccc(F)cc1` [8d, (Z)-N-(4-fluorophenyl)-2-(2-oxoindolin-3-ylidene)hydrazine-1-carbothioamide], for which the melting point was in the range of 255 to 256 °C. At h-NTPDase3, this compound came in with an inhibition at 100 µM of 46%. Moreover, at 100 µM the inhibition against m-NTPDase2 was 27%.
Turning to `COc1cccc(NC(=S)N/N=C2\C(=O)Nc3ccccc32)c1` [8e, (Z)-N-(3-methoxyphenyl)-2-(2-oxoindolin-3-ylidene)hydrazine-1-carbothioamide], the melting point lay within 220 to 224 °C. Besides, at 100 µM the inhibition on m-NTPDase2 was 29%.
The corresponding values for `O=C1Nc2ccccc2/C1=N/NC(=S)NCc1ccccc1` [8f, (Z)-N-benzyl-2-(2-oxoindolin-3-ylidene)hydrazine-1-carbothioamide] are 206 to 208 °C and 34%.
With `O=C1Nc2ccccc2/C1=N/NC(=S)Nc1cccc(Cl)c1` [8g, (Z)-N-(3-chlorophenyl)-2-(2-oxoindolin-3-ylidene)hydrazine-1-carbothioamide], the melting point lay within 235 to 236 °C. In addition, the inhibition at 100 µM at h-NTPDase3 came to 17%. At m-NTPDase2, this compound gave an inhibition at 100 µM of 36%.
Consider `Cc1ccc(NC(=S)N/N=C2\C(=O)Nc3ccccc32)cc1` [8h, (Z)-2-(2-oxoindolin-3-ylidene)-N-(p-tolyl)hydrazine-1-carbothioamide], for which the inhibition at 100 µM worked out at 26% on h-NTPDase3 and 31% on m-NTPDase2.
With `Cc1cccc(C)c1NC(=S)N/N=C1\C(=O)Nc2ccccc21` [8i, (Z)-N-(2,6-dimethylphenyl)-2-(2-oxoindolin-3-ylidene)hydrazine-1-carbothioamide], the melting point fell in the range of 250 to 252 °C. On h-NTPDase3, this compound came in with an inhibition at 100 µM of 25%. On m-NTPDase2, this compound registered a Ki of 0.04 µM and a half-inhibitory concentration (IC50) of 0.15 ± 0.01 µM.
On to `COc1ccc(OC)c(NC(=S)N/N=C2\C(=O)Nc3ccccc32)c1` [8j, (Z)-N-(2,5-dimethoxyphenyl)-2-(2-oxoindolin-3-ylidene)hydrazine-1-carbothioamide], for which the melting point was 245 to 248 °C. This compound yielded an inhibition at 100 µM at h-NTPDase3 of 34%. Besides, the inhibition at 100 µM against m-NTPDase2 came out at 27%.
For `COc1ccc(NC(=S)NNC2=c3ccccc3=NC2=O)cc1` [8k, (Z)-N-(4-methoxyphenyl)-2-(2-oxoindolin-3-ylidene)hydrazine-1-carbothioamide], the inhibition at 100 µM on h-NTPDase3 came out at 19%; against m-NTPDase2, 29%.
In turn, `O=C1Nc2ccccc2/C1=N/NC(=S)Nc1c(F)cccc1F` [8l, (Z)-N-(2,6-difluorophenyl)-2-(2-oxoindolin-3-ylidene)hydrazine-1-carbothioamide] displayed a melting point of 243 to 244 °C. Moreover, on m-NTPDase2, the Ki turned out to be 0.05 µM and inhibition was half-maximal at 0.2 ± 0.01 µM (IC50).
Regarding `CCNC(=S)N/N=C1\C(=O)Nc2ccccc21` [8m, (Z)-N-ethyl-2-(2-oxoindolin-3-ylidene)hydrazine-1-carbothioamide], the melting point fell in the range of 190 to 194 °C. On h-NTPDase3, the “Mode of inhibition of h-NTPDase3” value is reported as “non-competitive”, the Ki is 0.16 µM and the IC50 worked out at 0.38 ± 0.03 µM. For the same compound, on m-NTPDase2, the Ki was determined as 0.41 µM and the midpoint of inhibition, the IC50, lay at 1.5 ± 0.11 µM.
For the compound `Cc1ccc(C(=O)Nc2ccc(S(=O)(=O)O)c3cc(S(=O)(=O)O)cc(S(=O)(=O)O)c23)cc1NC(=O)c1cccc(NC(=O)Nc2cccc(C(=O)Nc3cc(C(=O)Nc4ccc(S(=O)(=O)O)c5cc(S(=O)(=O)O)cc(S(=O)(=O)O)c45)ccc3C)c2)c1` [Suramin, reference compound], at h-NTPDase3, the Ki came out at 1.85 µM and the IC50 was found to be 4.31 ± 0.41 µM. On m-NTPDase2, this compound had a Ki of 5.67 µM and an IC50 of 21 ± 2 µM.
